Consider 30 compounds from paper PMC8286840, “Identifying SARS-CoV-2 antiviral compounds by screening for small molecule inhibitors of Nsp3 papain-like protease” (Biochemical Journal, 2021).

Assay [1] addresses T1, SARS-CoV-2 PLpro (nsp3 1564–1878) (Severe acute respiratory syndrome coronavirus 2, UniProt P0DTD1). Put plainly: biochemical. Further details: FRET-quenched peptide (Pro3) cleavage by PLpro, 10 min pre-incubation, slope over 20 min, normalised to no-compound control. The note with it: high concentration screen, read-out: % of control remaining.
In assay [2] the target is T1, SARS-CoV-2 PLpro (nsp3 1564–1878). As to the kind of experiment: biochemical. Also noted: FRET-quenched peptide (Pro3) cleavage by PLpro, 10 min pre-incubation, slope over 20 min, normalised to no-compound control. The note with it: low concentration screen, read-out: % of control remaining.

Structures can show the parent of a compound that is named as a salt. Where two headings read alike, the source gives them in different places.

As to `COc1cc2c(Oc3ccc4[nH]c(C)cc4c3F)ncnc2cc1OCCCN1CCCC1` [Cediranib (AZD2171)], the remaining activity at 3.75 µM in assay [1] (Well no.=4999) was 103%. Moreover, the remaining activity at 1.25 µM in assay [2] (Well no.=4999) is 101%.

With `N[C@@H](C(=O)N[C@@H]1C(=O)N2C(C(=O)O)=C(Cl)CS[C@H]12)c1ccccc1` [Cefaclor], the remaining activity at 3.75 µM in assay [1] (Well no.=88) turned out to be 101%. In addition, the remaining activity at 1.25 µM in assay [2] (Well no.=88) came to 99.7%.

In the case of `Cc1nnc(SCC2=C(C(=O)O)N3C(=O)[C@@H](NC(=O)Cn4cnnn4)[C@H]3SC2)s1` [Cefazolin sodium], in assay [1] (Well no.=178), the remaining activity at 3.75 µM was determined as 99.4%. The remaining activity at 1.25 µM in assay [2] (Well no.=178) turned out to be 101%.

For `CO/N=C(\C(=O)N[C@@H]1C(=O)N2C(C(=O)[O-])=C(C[N+]3(C)CCCC3)CS[C@H]12)c1csc(N)n1` [Cefepime], the remaining activity at 3.75 µM in assay [1] (Well no.=1842) was found to be 88.2%. The remaining activity at 1.25 µM in assay [2] (Well no.=1842) stood at 90%.

For the compound `CO[C@@]1(NC(=O)CSCC#N)C(=O)N2C(C(=O)O)=C(CSc3nnnn3C)CS[C@@H]21` [Cefmetazole sodium], the remaining activity at 3.75 µM in assay [1] (Well no.=134) is 99.6%. Further, the remaining activity at 1.25 µM in assay [2] (Well no.=134) came out at 101%.

As for `CO/N=C(\C(=O)N[C@@H]1C(=O)N2C(C(=O)O)=C(Cn3ccc(=N)n3CCO)CS[C@H]12)c1csc(N)n1` [Cefoselis sulfate], the remaining activity at 3.75 µM in assay [1] (Well no.=5199) was determined as 100%. The remaining activity at 1.25 µM in assay [2] (Well no.=5199) worked out at 96.6%.

On to `CO/N=C(\C(=O)N[C@@H]1C(=O)N2C(C(=O)O)=C(COC(C)=O)CS[C@H]12)c1csc(N)n1` [Cefotaxime sodium], for which the remaining activity at 3.75 µM in assay [1] (Well no.=186) was 94.1%. In addition, in assay [2] (Well no.=186), the remaining activity at 1.25 µM is 93.2%.

Consider `NC(=O)c1cc[n+](CC2=C(C(=O)O)N3C(=O)[C@@H](NC(=O)[C@@H](c4ccccc4)S(=O)(=O)[O-])[C@H]3SC2)cc1` [Cefsulodin sodium salt hydrate], for which the remaining activity at 3.75 µM in assay [1] (Well no.=92) was 99.3%. Besides, the remaining activity at 1.25 µM in assay [2] (Well no.=92) was 98.3%.

`CC(C)(O/N=C(\C(=O)N[C@@H]1C(=O)N2C(C(=O)[O-])=C(C[n+]3ccccc3)CS[C@H]12)c1csc(N)n1)C(=O)O` [Ceftazidime]: the remaining activity at 3.75 µM in assay [1] (Well no.=2221) stood at 98%. Also, the remaining activity at 1.25 µM in assay [2] (Well no.=2221) was found to be 98.3%.

For `CO/N=C(\C(=O)N[C@@H]1C(=O)N2C(C(=O)O)=C(CSC(=O)c3ccco3)CS[C@H]12)c1csc(N)n1` [Ceftiofur HCl], in assay [1] (Well no.=5288), the remaining activity at 3.75 µM came out at 91.7%. In assay [2] (Well no.=5288), the remaining activity at 1.25 µM came out at 90.5%.

With `CO/N=C(\C(=O)N[C@@H]1C(=O)N2C(C(=O)O)=C(CSc3nc(=O)c(O)nn3C)CS[C@H]12)c1csc(N)n1` [Ceftriaxone sodium], the remaining activity at 3.75 µM in assay [1] (Well no.=132) turned out to be 105%. Further, the remaining activity at 1.25 µM in assay [2] (Well no.=132) worked out at 105%.

As for `CC1=C(O)C(=O)C=C2C1=CC=C1[C@@]2(C)CC[C@@]2(C)[C@@H]3C[C@](C)(C(=O)O)CC[C@]3(C)CC[C@]12C` [Celastrol], the remaining activity at 3.75 µM in assay [1] (Well no.=3430) was 94.6%. Moreover, in assay [2] (Well no.=3430), the remaining activity at 1.25 µM was 95.7%.

On to `Cc1ccc(-c2cc(C(F)(F)F)nn2-c2ccc(S(N)(=O)=O)cc2)cc1` [Celecoxib], for which the remaining activity at 3.75 µM in assay [1] (Well no.=1818) is 88.2%. In addition, the remaining activity at 1.25 µM in assay [2] (Well no.=1818) worked out at 88.6%.

On to `CCc1cc(-c2noc(-c3cc(OC)nc(C4CCCC4)c3)n2)cc(C)c1OC[C@@H](O)CO` [Cenerimod], for which the remaining activity at 3.75 µM in assay [1] (Well no.=7052) turned out to be 105%. In assay [2] (Well no.=7052), the remaining activity at 1.25 µM was determined as 105%.

As to `CCCCOCCOc1ccc(-c2ccc3c(c2)/C=C(/C(=O)Nc2ccc([S@@+]([O-])Cc4cncn4CCC)cc2)CCCN3CC(C)C)cc1` [Cenicriviroc Mesylate], in assay [1] (Well no.=8311), the remaining activity at 3.75 µM was determined as 99.6%. Further, the remaining activity at 1.25 µM in assay [2] (Well no.=8311) stood at 99.4%.

`CCCCOCCOc1ccc(-c2ccc3c(c2)/C=C(/C(=O)Nc2ccc([S@@+]([O-])Cc4cncn4CCC)cc2)CCCN3CC(C)C)cc1` [Cenicriviroc]: the remaining activity at 3.75 µM in assay [1] (Well no.=8515) was 105%. In assay [2] (Well no.=8515), the remaining activity at 1.25 µM came out at 104%.

`CN(C)CCOC(=O)COc1ccc(Cl)cc1` [Centrophenoxine hydrochloride]: the remaining activity at 3.75 µM in assay [1] (Well no.=46) is 107%. Moreover, in assay [2] (Well no.=46), the remaining activity at 1.25 µM came out at 103%.

As for `CC1=C(C(=O)O)N2C(=O)[C@@H](NC(=O)[C@H](N)c3ccccc3)[C@H]2SC1` [Cephalexin hydrate], the remaining activity at 3.75 µM in assay [1] (Well no.=34) was found to be 95.3%. Besides, the remaining activity at 1.25 µM in assay [2] (Well no.=34) amounted to 95.4%.

For `C/C=C(\C)C(=O)N[C@@H](c1ccccc1)[C@@H](O)C(=O)O[C@H]1C[C@@]2(O)[C@@H](OC(=O)c3ccccc3)[C@@H]3[C@]4(OC(C)=O)CO[C@@H]4C[C@H](O)[C@@]3(C)C(=O)[C@H](OC(C)=O)C(=C1C)C2(C)C` [Cephalomannine], the remaining activity at 3.75 µM in assay [1] (Well no.=5204) is 99.1%. For the same compound, the remaining activity at 1.25 µM in assay [2] (Well no.=5204) amounted to 97.2%.

`CC(=O)OCC1=C(C(=O)O)N2C(=O)[C@@H](NC(=O)Cc3cccs3)[C@H]2SC1` [Cephalothin sodium]: in assay [1] (Well no.=224), the remaining activity at 3.75 µM turned out to be 96.4%. Moreover, the remaining activity at 1.25 µM in assay [2] (Well no.=224) stood at 93.6%.

As to `CC(=O)OCC1=C(C(=O)O)N2C(=O)[C@@H](NC(=O)CSc3ccncc3)[C@H]2SC1` [Cephapirin sodium], in assay [1] (Well no.=188), the remaining activity at 3.75 µM was determined as 99.7%. Also, the remaining activity at 1.25 µM in assay [2] (Well no.=188) is 101%.

In the case of `COc1ccc2cc1Oc1ccc(cc1)C[C@H]1c3c(cc4c(c3Oc3cc5c(cc3OC)CCN(C)[C@@H]5C2)OCO4)CCN1C` [Cepharanthine], the remaining activity at 3.75 µM in assay [1] (Well no.=3555) was 106%. In addition, in assay [2] (Well no.=3555), the remaining activity at 1.25 µM was 102%.

`CC1=C(C(=O)O)N2C(=O)[C@@H](NC(=O)[C@H](N)C3=CCC=CC3)[C@H]2SC1` [Cephradine]: the remaining activity at 3.75 µM in assay [1] (Well no.=236) came to 100%. Also, the remaining activity at 1.25 µM in assay [2] (Well no.=236) stood at 98.9%.

On to `COCc1c(C(C)C)nc(C(C)C)c(/C=C/[C@@H](O)C[C@@H](O)CC(=O)O)c1-c1ccc(F)cc1` [Cerivastatin], for which the remaining activity at 3.75 µM in assay [1] (Well no.=1571) came out at 93.5%. In assay [2] (Well no.=1571), the remaining activity at 1.25 µM was found to be 91.1%.

On to `C/C=C/C/C=C/CCC(=O)[C@H]1O[C@H]1C(N)=O` [Cerulenin], for which the remaining activity at 3.75 µM in assay [1] (Well no.=3137) is 102%. In addition, the remaining activity at 1.25 µM in assay [2] (Well no.=3137) came to 93%.

`O=C(O)COCCN1CCN(C(c2ccccc2)c2ccc(Cl)cc2)CC1` (stereo not drawn) [Cetirizine 2HCl]: in assay [1] (Well no.=1712), the remaining activity at 3.75 µM is 98.8%. Moreover, the remaining activity at 1.25 µM in assay [2] (Well no.=1712) was 96.2%.

With `O=C(O)COCCN1CCN(C(c2ccccc2)c2ccc(Cl)cc2)CC1` (stereo not drawn) [Cetirizine (dihydrochloride)], in assay [1] (Well no.=7325), the remaining activity at 3.75 µM was determined as 103%. Also, the remaining activity at 1.25 µM in assay [2] (Well no.=7325) came out at 104%.

Consider `C/C=C(/C)C(=O)O[C@H]1CC[C@@]2(C)[C@@H]3CC[C@H]4[C@]5(O)C[C@H](O)[C@@]6(O)[C@@H](CN7C[C@@H](C)CC[C@H]7[C@@]6(C)O)[C@]5(O)C[C@@]42O[C@]13O` [Cevadine], for which the remaining activity at 3.75 µM in assay [1] (Well no.=3139) amounted to 102%. Further, the remaining activity at 1.25 µM in assay [2] (Well no.=3139) worked out at 103%.

Take `C[C@@H]1O[C@@]2(CS1)CN1CCC2CC1` [Cevimeline (hydrochloride hemihydrate)]: the remaining activity at 3.75 µM in assay [1] (Well no.=7571) worked out at 90.9%. Moreover, in assay [2] (Well no.=7571), the remaining activity at 1.25 µM is 91.5%.

Turning to `CC(CN(C)C)NC(=O)c1cccc2[nH]c(-c3ccncc3)nc12` (stereo not drawn) [ChX710], the remaining activity at 3.75 µM in assay [1] (Well no.=8551) turned out to be 101%. Besides, the remaining activity at 1.25 µM in assay [2] (Well no.=8551) was 108%.
